Tested on: permanent middle cerebral artery occlusion (MCAO) stroke model
Test: Rat permanent middle cerebral artery occlusion (MCAO) stroke model
Format: in vivo
Details: for neuroprotective activity in vivo: 1 μmol/kg intravenously 30 min post-MCAO
Experimental: Administration of peptide (DR9: rrrrrrrrr-NH2; R12, R15, R18, protamine sulphate; protamine) or vehicle (saline: 0.9% NaCl) treatment solution was performed at 30 min post-MCAO. The peptide treatment comprised DR9 in saline (600 μl) to provide an intravenous loading dose of 1 μmol/kg or 1000 nmol/kg given over 5-6 min via the right jugular vein.
This study was approved by the Animal Ethics Committee of the University of Western Australia. Male Sprague Dawley rats weighing 270 g to 350 g were kept under controlled housing conditions with 12 hour light-dark cycle with free access to food and water. Experimental animals were fasted overnight and subjected to permanent middle cerebral artery occlusion (MCAO) as follows.
Anaesthesia was induced with 4% isoflurane and a 2:1 mix of N2O and O2 via mask. Anaesthesia was maintained at 1.7-2% isoflurane. Cerebral blood flow (CBF) was monitored continuously using laser Doppler flowmetry (Blood FlowMeter, AD Instruments, Sydney, Australia). The probe was located 1 mm caudal and 4 mm lateral (right) to the bregma. A cannula was inserted in the right femoral artery to continuously monitor blood pressure and to provide samples for blood glucose and blood gas readings. Blood glucose was measured using a glucometer (MediSense Products, Abbott Laboratories, Bedford, Mass., USA) and blood gases were measured using a blood gas analyser (ABL5, Radiometer, Copenhagen, Denmark). Blood pressure was maintained at 80-100 mmHg. During surgery, rectal temperature was maintained at 37±0.5° C. and warming applied with a fan heater when necessary. For intravenous infusions, a length of PVC line primed with heparinised saline was tied in place in the right jugular vein, then externalised through a dorsal mid-scapular incision to a tether/swivel system (Instech Laboratories, Philadelphia, USA) designed to permit free movement.
The right common carotid artery (CCA) was exposed via a ventral neck incision. […] The isolated section of the ECA was ligated and cauterised to create a stump. The carotid body was removed and the pterygopalatine artery was ligated. A 4-0 nylon monofilament with a 0.39 mm diameter silicone tip (Doccol, Redlands, Calif., USA) was inserted through the ECA stump into the CCA and advanced rostrally into the internal carotid artery (ICA) until the laser Doppler flowmetry recorded a >30% decrease from baseline of cerebral blood flow. The monofilament was secured in two places (at the base of the ECA stump and on the ICA) for the remainder of the experiment. Animals were given post-operative analgesia consisting of pethidine (3 mg/kg intramuscular) and bupivacaine (1.5 mg/kg subcutaneously) at head and leg incision sites.
Post-surgery animals were allowed to recover in a climate-controlled chamber and their core body temperature monitored and maintained at 37±0.5° C. by a cooling/heating fan when required for 3-4 hours.
Animals were sacrificed 24 hours post-MCAO with intra-peritoneal injections of sodium pentobarbitone (900 mg/kg). […] Slices were scanned and images were analysed by an operator blind to treatment status using ImageJ 3rd edition (NIH, USA). The total infarct volume was determined by adding the areas of infarcted tissue on both sides of the 2 mm sections. These measured areas were multiplied by half slice thickness (1 mm), and corrected for cerebral oedema by multiplying the ratio of affected to normal hemisphere areas. […]

| Compound | neuroprotective activity in vivo | reduction of infarct volume (brain damage) (1 μmol/kg IV 30 min post-MCAO, infarct volume 24 h post-MCAO (FIGS. 5, 27)) |
| --- | --- | --- |
| N=C(N)NCCC[C@H](NC(=O)[C@H](CCCNC(=N)N)NC(=O)[C@H](CCCNC(=N)N)NC(=O)[C@H](CCCNC(=N)N)NC(=O)[C@H](CCCNC(=N)N)NC(=O)[C@H](CCCNC(=N)N)NC(=O)[C@H](CCCNC(=N)N)NC(=O)[C@H](CCCNC(=N)N)NC(=O)[C@@H](N)CCCNC(=N)N)C(=O)O [Peptide R9] | possessed neuroprotective activity in vivo | – |
| H-RRRRRRRRRRRRRRRRRR-OH [Peptide R18] | possessed neuroprotective activity in vivo | approximately 20% |

Source: patent US20160250285A1, “NEUROPROTECTIVE PEPTIDES” (priority 2013, published 2016)
